# Like-named read-outs stand apart in the source and are kept apart here.
# What was measured:
# [1] = tested on: HIV JRFL strain pseudovirions; test: Pseudovirion viral infectivity (entry) assay, JRFL; type: cell-based, HIV-1
# Description: (§1) This study included the use of the HIV HXB2 strain and the HIV JRFL strain. Viral infectivity was measured essentially as previously described (Hamburger 2005) with several modifications. 8 μg/mL DEAE-Dextran was used as a fusion enhancer in all assays. Media was changed 22-26 h following infection. […] Fits were weighted by the absolute s.e.m. from quadruplicate points with the minimum allowable error set to 1%.
# (§2) Pseudovirion infectivity assays were carried out using HIV HXB2 strain and HIV JRFL strain luciferase reporter pseudovirions (NL4-3 strain) and HOS-CD4-CXCR4 (for HXB2) or HOS-CD4-CCR5 (for JRFL) target cells (Welch, 2007 and 2010). Inhibitors curves were generated using six concentration points measured in quadruplicate, and luciferase counts were normalized to an uninhibited control. Inhibition curves were fit using a standard IC50 equation (1-c/(IC50+c)) weighting each concentration point by its standard error in KaleidaGraph™ (Synergy Software). Reported IC50 values are the average of at least 2 independent assays.
# HIV = test: Infectivity assay; type: cell-based
# [2] = tested on: HIV HXB2 strain pseudovirions; test: Pseudovirion viral infectivity (entry) assay, HXB2; type: cell-based, HIV-1
# Description: as §1, §2
# Q577R HXB2 = test: Pseudovirion entry assay, resistant strain Q577R; type: cell-based, HIV-1; conditions: Table 4; resistance mutation discovered against PIE12-trimer
# Description: as §2
# [3] = tested on: HIV HXB2 strain pseudovirions; conditions: Table 5; value marked * (from 20); cited from earlier work
# E560K/V570I HXB2 = test: Pseudovirion entry assay, resistant strain E560K/V570I; type: cell-based, HIV-1; conditions: Table 4; resistance mutation discovered against PIE7-dimer
# Description: as §2
# [4] = tested on: HIV JRFL strain pseudovirions; conditions: Table 5; value marked * (from 20); cited from earlier work
# HIV-1 isolate IIIB = test: Replication competent virus, PBMC target cells; type: cell-based; conditions: envelope subtype B
# HIV-1 isolate Ba-L = test: Replication competent virus, PBMC target cells; type: cell-based; conditions: envelope subtype B
# HIV-1 isolate 92UG037 = test: Replication competent virus, PBMC target cells; type: cell-based; conditions: isolate 92UG037, envelope subtype A
# HIV-1 isolate 93BR020 = test: Replication competent virus, PBMC target cells; type: cell-based; conditions: isolate 93BR020, envelope subtype F
# HIV-1 isolate 92UG001 = test: Replication competent virus, PBMC target cells; type: cell-based; conditions: isolate 92UG001, envelope subtype D
# HIV-1 isolate G3 = test: Replication competent virus, PBMC target cells; type: cell-based; conditions: isolate G3, envelope subtype G
# HIV-1 isolate 93BR019 = test: Replication competent virus, PBMC target cells; type: cell-based; conditions: isolate 93BR019, envelope subtype BF
# HIV-1 isolate CMU02 = test: Replication competent virus, PBMC target cells; type: cell-based; conditions: isolate CMU02, envelope subtype AE
# HIV-1 isolate 93IN101 = test: Replication competent virus, PBMC target cells; type: cell-based; conditions: isolate 93IN101, envelope subtype C
# HIV-1 isolate 93TH073 = test: Replication competent virus, PBMC target cells; type: cell-based; conditions: isolate 93TH073, envelope subtype E
# [5] = tested on: replication competent HIV strains that cover envelope subtypes A, B, C, D, E, F, and G; test: Inhibitory breadth against replication competent virus panel; type: cell-based, HIV-1
# HIV-1 isolate CMU06 = test: Replication competent virus, PBMC target cells; type: cell-based; conditions: isolate CMU06, envelope subtype E
# HIV-1 isolate 93BR029 = test: Replication competent virus, PBMC target cells; type: cell-based; conditions: isolate 93BR029, envelope subtype F
# HIV-1 isolate JR-FL = test: Replication competent virus, PBMC target cells; type: cell-based; conditions: envelope subtype B
# HIV-1 isolate JR-CSF = test: Replication competent virus, PBMC target cells; type: cell-based; conditions: envelope subtype B
# HIV-1 isolate RU570 = test: Replication competent virus, PBMC target cells; type: cell-based; conditions: isolate RU570, envelope subtype G
# HIV-1 isolate 92UG046 = test: Replication competent virus, PBMC target cells; type: cell-based; conditions: isolate 92UG046, envelope subtype D
# HIV-1 isolate 92BR025 = test: Replication competent virus, PBMC target cells; type: cell-based; conditions: isolate 92BR025, envelope subtype C
# HIV-1 isolate 92UG029 = test: Replication competent virus, PBMC target cells; type: cell-based; conditions: isolate 92UG029, envelope subtype A
# [6] = Table 4, cholesterol potency-enhancing cargo
substance,measurement,setting,value
KKGACELLGWEWAWLCAA [D10-p5],IC50,"[1]; Table 2, pseudovirion entry",> 25000 nM
same,inhibit infection of cells,HIV,inhibit infection of cells
GACDYPEWQWLCAAGK [PIE7-GK],IC50,"[1]; Table 2, pseudovirion entry",15800 nM
same,IC50,"[2]; Table 2, pseudovirion entry",390 nM
KKGACESPEWRWLCAA [2K-PIE1],IC50,"[1]; Table 2, pseudovirion entry",> 100000 nM
KGACDYPEWQWLCAA [PIE7],IC50,"[1]; Table 2, pseudovirion entry",24000 nM
same,IC50,"[2]; Table 2, pseudovirion entry",620 nM
KGACDYPEWRWLCAA [PIE2],IC50,"[1]; Table 2, pseudovirion entry",66000 nM
HACDYPEWQWLCELGK [PIE15],IC50,"[1]; Table 2, pseudovirion entry",1450 nM
same,IC50,"[2]; Table 2, pseudovirion entry",67 nM
HPCDYPEWQWLCKLGK [PIE13],IC50,"[1]; Table 2, pseudovirion entry",1470 nM
same,IC50,"[2]; Table 2, pseudovirion entry",41 nM
HPCDYPEWQWLCELGK [PIE12],IC50,"[1]; Table 2, pseudovirion entry",578 nM
same,IC50,[1]; [6],580 nM
same,IC50,Q577R HXB2,10200 nM
same,IC50,[3],37 ± 2.3 nM
same,IC50,E560K/V570I HXB2,240 nM
same,IC50,[4],580 ± 21.4 nM
same,IC50,"[2]; Table 2, pseudovirion entry",37 nM
same,IC50,[2]; [6],37 nM
enfuvirtide [FUZEON ®],IC50,"[1]; Table 2, pseudovirion entry",5 nM
same,IC50,HIV-1 isolate IIIB,28.3 nM
same,IC50,HIV-1 isolate Ba-L,19.7 nM
same,IC50,HIV-1 isolate 92UG037,41.5 nM
same,IC50,HIV-1 isolate 93BR020,58.5 nM
same,IC50,HIV-1 isolate 92UG001,182 nM
same,IC50,HIV-1 isolate G3,23.3 nM
same,IC50,HIV-1 isolate 93BR019,> 1000 nM
same,IC50,HIV-1 isolate CMU02,43.8 nM
same,IC50,HIV-1 isolate 93IN101,22.4 nM
same,IC50,HIV-1 isolate 93TH073,198 nM
same,IC50,"[2]; Table 2, pseudovirion entry",3.7 nM
same,fold less inhibition than PIE12-trimer,[5]; HIV subtype A viruses,> 100 fold
same,fold less inhibition than PIE12-trimer,[5]; subtype C viruses,~60 fold
same,IC50,HIV-1 isolate CMU06,5.65 nM
same,IC50,HIV-1 isolate 93BR029,18.6 nM
same,IC50,HIV-1 isolate JR-FL,1.65 nM
same,IC50,HIV-1 isolate JR-CSF,7.03 nM
same,IC50,HIV-1 isolate RU570,37 nM
same,IC50,HIV-1 isolate 92UG046,130 nM
same,IC50,HIV-1 isolate 92BR025,305 nM
same,IC50,HIV-1 isolate 92UG029,191 nM
KGACDYPEWQWLCAAGK [K-PIE7-GK],IC50,"[1]; Table 2, pseudovirion entry",14800 nM
HPCDYPEWQWLCRLGK [PIE14],IC50,"[1]; Table 2, pseudovirion entry",1050 nM
same,IC50,"[2]; Table 2, pseudovirion entry",33 nM
KGACDYKEWQWLCAA [PIE8],IC50,"[1]; Table 2, pseudovirion entry",~110000 nM
GACDYPEWQWLCAAGKK [PIE7-GKK],IC50,"[1]; Table 2, pseudovirion entry",19100 nM
same,IC50,"[2]; Table 2, pseudovirion entry",380 nM

# From US11020482B2, “Methods and compositions related to inhibition of viral entry” (UNIVERSITY OF UTAH RESEARCH FOUNDATION, priority 2011, dated 2021)
